Patent publication US20240174690A1, “ANNULATED 2-AMINO-3-CYANO THIOPHENES AND DERIVATIVES FOR THE TREATMENT OF CANCER” (BOEHRINGER INGELHEIM INTERNATIONAL GMBH, priority 2021, published 2024)

How the values were obtained:
KRAS (G12C)::SOS1 = KRAS (G12C)::SOS1 (Homo sapiens (Human), UniProt P01116, C118S/C51S/C80L/G12C); experiment: KRAS::SOS1 AlphaScreen binding assay, KRAS G12C
How it was run: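 KRAS 1-169 (biotinylated avi-tag) with GST-SOS1 564-1049 and 10 µM GDP in PBS/0.1% BSA/0.05% Tween 20: WT and G13D 10 nM each with 10 nM SOS1; G12D 10 nM and G12C 7.5 nM with 5 nM SOS1. After 30 min, glutathione acceptor/streptavidin donor beads were added for 60 min at RT in the dark, then AlphaScreen read; 4-parameter IC50.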

SAS cells = experiment: SAS CTG proliferation assay (120 h) (HNSCC, wt amplified); type: cell-based
Experimental: SAS CTG Proliferation Assay (120 h) (HNSCC, Wt Amplified)
SAS cells (JCRB0260) are dispensed into 384-well plates, flat and clear bottom (Greiner, PNr. 781091) at a density of 300 cells per well in 60 μL DMEM:F12 (Gibco 31330-038)+10% Fetal Calf Serum (HyClone, PNr.: SH30084.03) and incubated at 37° C. in a CO2 incubator overnight. The next day, compounds (10 mM stock in DMSO) are added with the ECHO acoustic liquid handler system (Beckman Coulter), including DMSO controls. Plates are incubated for 120 h, and cell viability is measured using CellTiter-Glo luminescent cell viability reagent (Promega product code G7570). Viability (stated as percent of control) is defined as relative luminescence units RLU of each well divided by the RLU of cells in DMSO controls. IC50 values are determined from viability measurements by non-linear regression using a four-parameter model.

Sequence of KRAS (G12C)::SOS1 (P01116 other isoform, or with tags, fused parts or gaps G12C/C51S/C80L/C118S): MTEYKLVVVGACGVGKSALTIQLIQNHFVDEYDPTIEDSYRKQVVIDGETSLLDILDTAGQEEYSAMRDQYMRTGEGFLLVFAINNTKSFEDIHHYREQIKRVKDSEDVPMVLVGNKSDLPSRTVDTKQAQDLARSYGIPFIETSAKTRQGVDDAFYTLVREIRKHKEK

| Compound | IC50 (KRAS (G12C)::SOS1) [nM] | IC50 (SAS cells) [nM] |
| --- | --- | --- |
| C[C@H](Oc1cc(-n2cc(Cn3cncn3)nn2)nc(-c2noc3c2CCC[C@@]32CCCc3sc(N)c(C#N)c32)n1)[C@@H]1CCCN1C [II-124] | 2 | 68 |
| C[C@H](Oc1cc(-n2ccnc2Cl)nc(-c2noc3c2CCC[C@@]32CCCc3sc(N)c(C#N)c32)n1)[C@@H]1CCCN1C [II-93] | 3 | 366 |
| CO[C@@H]1C[C@@H]([C@H](C)Oc2cc(-n3ccnc3)nc(-c3noc4c3CCC[C@@]43CCCc4sc(N)c(C#N)c43)n2)N(C)C1 [II-58] | 2 | 342 |
| C[C@H]1CN(C)CCCN1c1cc(N2CCN(C)CC2)nc(-c2onc3c2CCC[C@@]32CCCc3sc(N)c(C#N)c32)n1 [I-7] | 23 | 472 |
| C[C@H](Oc1cc(N2C[C@H](C)N[C@@H](C)C2)nc(-c2onc3c2CCC[C@@]32CCCc3sc(N)c(C#N)c32)n1)[C@@H]1CCCN1C [I-6] | 5 | 3440 |
| C[C@H](Oc1cc(N2CCOC3(CC3)C2)nc(-c2noc3c2CCC[C@@]32CCCc3sc(N)c(C#N)c32)n1)[C@@H]1CCCN1C [II-61] | 2 | 169 |
| C[C@H](Oc1cc(-n2ccncc2=O)nc(-c2noc3c2CCC[C@@]32CCCc3sc(N)c(C#N)c32)n1)[C@@H]1CCCN1C [II-116] | 2 | 2010 |
| C[C@H](Oc1cc(-n2cc(C3CC3)nn2)nc(-c2noc3c2CCC[C@@]32CCCc3sc(N)c(C#N)c32)n1)[C@@H]1CCCN1C [II-118] | 2 | 931 |
| C[C@H](Oc1cc(N2Cc3cnn(C)c3C2)nc(-c2noc3c2CCC[C@@]32CCCc3sc(N)c(C#N)c32)n1)[C@@H]1CCCN1C [II-63] | 3 | 1310 |
| C[C@H](Oc1cc(-n2cncc3ccnc2-3)nc(-c2noc3c2CCC[C@@]32CCCc3sc(N)c(C#N)c32)n1)[C@@H]1CCCN1C [II-105] | 2 | 55 |
| C[C@H](Oc1cc(C2COCCO2)nc(-c2noc3c2CCC[C@@]32CCCc3sc(N)c(C#N)c32)n1)[C@@H]1CCCN1C (stereo partly drawn) [II-95] | 2 | 5180 |
| C[C@H](Oc1cc(N2CCNC3(CC3)C2)nc(-c2noc3c2CCC[C@@]32CCCc3sc(N)c(C#N)c32)n1)[C@@H]1CCCN1C [II-54] | 2 | 234 |
| C[C@H](Oc1cc(-n2cc(-c3cccnc3)nn2)nc(-c2noc3c2CCC[C@@]32CCCc3sc(N)c(C#N)c32)n1)[C@@H]1CCCN1C [II-123] | 2 | 113 |
| C[C@H](Oc1cc(N2C[C@H](C)N[C@@H](C)C2)nc(-c2noc3c2CCC[C@@]32CCCc3sc(N)c(C#N)c32)n1)[C@@H]1CCCN1C [II-56] | 2 | 1430 |

More lines, main results first:

| IC50 (KRAS (G12C)::SOS1) [nM] | Compound | IC50 (SAS cells) [nM] |
| --- | --- | --- |
| 2 | C[C@H](Oc1cc(-c2ccccn2)nc(-c2noc3c2CCC[C@@]32CCCc3sc(N)c(C#N)c32)n1)[C@@H]1CCCN1C [II-85] | 26 |
| 2 | C[C@H](Oc1cc(-c2cc[nH]n2)nc(-c2noc3c2CCC[C@@]32CCCc3sc(N)c(C#N)c32)n1)[C@@H]1CCCN1C [II-71] | 47 |
| 2 | C[C@H](Oc1cc(N2CCNC2=O)nc(-c2noc3c2CCC[C@@]32CCCc3sc(N)c(C#N)c32)n1)[C@@H]1CCCN1C [II-64] | 16 |
| 2 | C[C@H](Oc1cc(-n2ccc(C#N)n2)nc(-c2noc3c2CCC[C@@]32CCCc3sc(N)c(C#N)c32)n1)[C@@H]1CCCN1C [II-102] | 71 |
| 2 | C[C@H](Oc1cc(-c2cnsc2)nc(-c2noc3c2CCC[C@@]32CCCc3sc(N)c(C#N)c32)n1)[C@@H]1CCCN1C [II-111] | 57 |
| 3 | CC(=O)N1CC=C(c2cc(O[C@@H](C)[C@@H]3CCCN3C)nc(-c3noc4c3CCC[C@@]43CCCc4sc(N)c(C#N)c43)n2)CC1 [II-81] | 51 |
| 2 | Cc1cn(C)nc1-c1cc(O[C@@H](C)[C@@H]2CCCN2C)nc(-c2noc3c2CCC[C@@]32CCCc3sc(N)c(C#N)c32)n1 [II-68] | 623 |
| 2 | C[C@H](Oc1cc(-c2ccncc2)nc(-c2noc3c2CCC[C@@]32CCCc3sc(N)c(C#N)c32)n1)[C@@H]1CCCN1C [II-78] | 318 |
| 2 | C[C@H](Oc1cc(N2CC[C@@H](O)C2)nc(-c2noc3c2CCC[C@@]32CCCc3sc(N)c(C#N)c32)n1)[C@@H]1CCCN1C [II-66] | 60 |
| 2 | C[C@H](Oc1cc(-c2ccn(C)n2)nc(-c2noc3c2CCC[C@@]32CCCc3sc(N)c(C#N)c32)n1)[C@@H]1CCCN1C [II-96] | 148 |
